# Source: patent US7582280B2, “Conjugates of antioxidants with metal chelating ligands for use in diagnostic and therapeutic applications” (Bracco International B.V., priority 2000, dated 2009)
# Structures can show the parent of a compound that is named as a salt.
# Experiments:
# [1] = test system: myocardial lesions induced by ischemia-reperfusion; conditions: rats; cited from earlier work
# [2] = target: T1, seronom (HSA preparation) (Homo sapiens, UniProt P02768); assay: Fraction bound in aqueous seronom by centrifree micropartition ultrafiltration and ICP [Gd]; type: in vitro ADME; conditions: centrifuged 500 xg 45 min, [Gd] by ICP
# Experimental: After the measurement, the sample in aqueous seronom was placed in a centrifree micropartition device (Millipore, Beverly, Mass.). The device was centrifuged at 500 xg for 45 min in a fixed angle rotor (Beckman Model J2-21M, JA-20 rotor). The solution (0.5 mL) was taken from below the filter (unbound Gd-ligand) for [Gd] ICP measurement. The [Gd] of the uncentrifuged sample was also measured as a control. The Fraction Bound was calculated by the following equation: Fraction Bound=([Gd-ligand]control−[Gd-ligand]unbound)/[Gd-ligand]control. Table 1 details the results of the tests.
# [3] = Relaxivity in water (relaxometer); type: physicochemical; conditions: 38° C., IBM PC/20 multispec relaxometer
# From the text: (§1) Relaxivity of a paramagnetic material in the presence of a large protein such as human serum albumin may be used to study the ability of the compounds of the present invention to bind the target protein. As such, when a small molecule binds a large protein, the relaxivity of the former will increase because of an increase in its rotational correlation time. This increase in relaxivity may be used not only to measure the extent of binding but also to evaluate the viability of the paramagnetic agent as a blood pool contrast medium.
# (§2) The relaxivity of the conjugates 22a and 22b in water as well as in water containing a known amount (20%, v/v) of a HSA preparation, known as, seronom (Table 1) were studied.
# (§3) The relaxation time of the samples (22a or 22b) in seronom (T1Gd-ligand in seronom) and in water (T1Gd-ligand in water) were measured at 38° C. using an IBM PC/20 multispec relaxometer. The relaxivity of the samples in seronom (r1Gd-ligand in seronom) and in water (r1Gd-ligand in water) were calculated by the following equations: r1Gd-ligand in seronom=(1/T1Gd-ligand in seronom−1/T1seronom)/[Gd-ligand] r1Gd-ligand in water=(1/T1Gd-ligand in water−1/T1water)/[Gd-ligand],
# (§4) where [Gd-ligand] is the concentration of the chelate 22a or 22b, which was determined by ICP^11; T1seronom is the relaxation time for pure aqueous seronom; T1water is the relaxation time for pure water.
# [4] = target: T1, seronom (HSA preparation); assay: Relaxivity in water containing 20% v/v seronom (HSA preparation); type: physicochemical; conditions: for Relaxivity in aqueous seronom r1Gd-ligand in seronom: 38° C., water containing 20% v/v seronom; for increase in relaxivity in the presence of seronom: seronom versus water
# From the text: as §1, §2, §3, §4
# T1 sequence (P02768 25-609): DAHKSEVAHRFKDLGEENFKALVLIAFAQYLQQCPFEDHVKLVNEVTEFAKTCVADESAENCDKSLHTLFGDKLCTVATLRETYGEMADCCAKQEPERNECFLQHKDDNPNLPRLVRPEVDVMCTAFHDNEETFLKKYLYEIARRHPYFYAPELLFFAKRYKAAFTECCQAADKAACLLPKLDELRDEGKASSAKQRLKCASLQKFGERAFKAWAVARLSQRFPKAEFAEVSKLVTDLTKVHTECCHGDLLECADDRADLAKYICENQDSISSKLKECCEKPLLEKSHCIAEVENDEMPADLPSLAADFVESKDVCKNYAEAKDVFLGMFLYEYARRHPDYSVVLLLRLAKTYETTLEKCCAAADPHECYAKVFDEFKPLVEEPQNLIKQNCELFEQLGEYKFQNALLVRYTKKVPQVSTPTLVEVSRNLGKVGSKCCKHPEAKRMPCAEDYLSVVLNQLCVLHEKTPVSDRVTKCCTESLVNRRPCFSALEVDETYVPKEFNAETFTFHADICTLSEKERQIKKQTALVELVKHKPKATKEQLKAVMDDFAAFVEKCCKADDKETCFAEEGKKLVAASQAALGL
fraction unbound [2],Relaxivity in water r1Gd-ligand in water [3] [mM⁻¹ s⁻¹],Relaxivity in aqueous seronom r1Gd-ligand in seronom [4] [mM⁻¹ s⁻¹],increase in relaxivity in the presence of seronom [4] [%],SMILES,inhibition of myocardial lesions induced by ischemia-reperfusion [1]
,,,,CCCCCCCCCCCCCCCCCCOC1=C(O)[C@@H]([C@@H](O)CO)OC1=O [2-O-octadecylascorbic acid],markedly inhibit
0.912,4.83,6.38,32,"O=C(O)CN1CCN(CC(=O)O)CCN(CC(=O)NCC(=O)NC[C@@H](O)[C@@H]2OC(=O)C(O)=C2O)CCN(CC(=O)O)CC1 [Compound 22a, 1,4,7,10-tetraazacyclododecane-1,4,7-triacetic acid, 10-[2-[[2-[[(2R)-2-[(2S)-2,5-dihydro-3,4-dihydroxy-5-oxo-2-furanyl]-2-hydroxyethyl]amino]-2-oxoethyl]amino]2-oxoethyl]-, gadolinium salt]",
0.891,7.20,8.18,14,"O=C(O)CN1CCN(CC(=O)O)CCN(CC(=O)NCC(=O)NCC2CCC(C(=O)NC[C@@H](O)[C@@H]3OC(=O)C(O)=C3O)CC2)CCN(CC(=O)O)CC1 (stereo partly drawn) [Compound 22b, 1,4,7,10-tetraazacyclododecane-1,4,7-triacetic acid, 10-[2-[[2-[[[4-[[[(2R)-2-[(2S)-2,5-dihydro-3,4-dihydroxy-5-oxo-2-furanyl]-2-hydroxyethyl]amino]carbonyl]cyclohexyl]methyl]amino]-2-oxoethyl]amino]2-oxoethyl]-, gadolinium salt]",
